# Measured values: patent US10849339B2, “Beverages containing rare sugars” (The Coca-Cola Company, priority 2013, dated 2020)
# How the values were obtained:
# [1] = Sweetness evaluation against sucrose solutions in citric acid buffer, two panelists (Example 8); type: in vivo, human
# Procedure: The sweetness level of D-tagatose and FEMA GRAS FLAVOR 4701 was evaluated against 5%, 6%, and 7% sucrose solutions. All solutions were made in citric acid/potassium citrate buffer Beverages were made and chilled at 4° C. before tasting. Two panelists evaluated the beverages. Bottles were removed from the refrigerator and about 20 ml of beverage poured in 2 oz-plastic cups. Mineral water was given to panelists for palate rinsing before tasting and between tasting different samples. Unsalted crackers were also given.
# [2] = Sweetness evaluation against sucrose solutions in citric acid buffer, two panelists (Example 5); type: in vivo, human
# Procedure: First, the sweetness level of 2,4-dihydroxybenzoic acid was evaluated against three solutions of 1%, 2%, and 3% sucrose. Second, the sweetness level of a solution containing D-psicose and 500 ppm 2,4-dihydroxybenzoic acid was evaluated against 5%, 6.5%, and 7% sucrose solutions. All solutions were made in citric acid/potassium citrate buffer.
# Beverages were kept in the refrigerator overnight and tasted cold the following day. Two panelists evaluated the beverages. Bottles were removed from the refrigerator and about 20 ml of beverage poured in 2 oz-plastic cups. Mineral water was given for palate rinsing before tasting and between tasting different samples. Unsalted crackers were also given.
# [3] = Sweetness evaluation against sucrose solutions in citric acid buffer (Example 7); type: in vivo, human
# Procedure: 4-Amino-5-(cyclohexyloxy)-2-methylquinoline-3-carboxylic acid was evaluated at 30 ppm. First, the sweetness level of the compound was evaluated against three solutions of 1%, 1.5%, and 2% sucrose. Second, the sweetness level of a solution containing D-psicose and 30 ppm amino-5-(cyclohexyloxy)-2-methylquinoline-3-carboxylic acid was evaluated against 5%, 6%, and 7% sucrose solutions.
# A solution containing a blend of sucrose and D-psicose with a total sweetness equivalent to 5.5% sucrose (3.5% sucrose and 2% SE D-psicose) was also made and evaluated for its sweetness with and without addition of 30 ppm 4-amino-5-(cyclohexyloxy)-2-methylquinoline-3-carboxylic acid. All solutions were made in citric acid/potassium citrate buffer.
# Beverages were kept in the refrigerator overnight and tasted cold the following day. Two panelists evaluated the beverages. Bottles were removed from the refrigerator and about 20 ml of beverage poured in 2 oz-plastic cups. Mineral water was given for thorough palate rinsing before tasting and between tasting different samples. Unsalted crackers were also given.
# [4] = sucrose part of the blend; from US20130041046A; cited from earlier work
# [5] = Taste test with eight panelists, sweetness rated against 1%, 1.5% and 2% sucrose controls (Example 1); type: in vivo, human
# Procedure: Taste tests were carried out with eight panelists. Bottles were removed from the refrigerator and about 50 ml of beverage was poured into 4 oz-plastic cups. Panelists were given mineral water to rinse their mouth before tasting and between tasting different samples. Unsalted crackers were also given to panelists to eat. Taste tests were done in two rounds: a first round in which a sample of D-psicose in citric acid/potassium citrate buffer and a sample of D-psicose and Reb-C in citric acid/potassium citrate buffer were evaluated, and a second round in which a sample of D-psicose in a lemon lime carbonated soft drink and a sample of D-psicose and Reb-C in a lemon lime carbonated soft drink were evaluated. In each round, panelists were asked to e choose the sweetest sample among the pair, then rate the sweetness level against control solutions of 1%, 1.5%, and 2% sucrose in citric acid/potassium citrate buffer.
# [6] = Sweetness recognition threshold concentration by taste testing; type: in vivo, human
# Excerpt: The term “sweetness recognition threshold concentration,” as generally used herein, is the lowest known concentration of a sweet compound that is perceivable by the human sense of taste, typically around 1.0% sucrose equivalence (1.0% SE). While the particular sweetness recognition threshold concentration between sweetness enhancers can vary, generally the concentration of sweetness enhancer is below 500 ppm, such as, for example, from about 5 ppm to about 300 ppm, from about 50 ppm to about 200 ppm or from about 100 ppm to about 200 ppm.
# Generally, the sweetness enhancers may enhance or potentiate the sweet taste of sweeteners without providing any noticeable sweet taste by themselves when present at or below the sweetness recognition threshold concentration of a given sweetness enhancer; however, the sweetness enhancers may themselves provide sweet taste at concentrations above their sweetness recognition threshold concentration. The sweetness recognition threshold concentration is specific for a particular enhancer and can vary based on the beverage matrix. The sweetness recognition threshold concentration can be easily determined by taste testing increasing concentrations of a given enhancer until greater than 1.0% sucrose equivalence in a given beverage matrix is detected. […]
# [7] = Sweetness evaluation against sucrose solutions in citric acid buffer, three panelists (Example 6); type: in vivo, human; settings: D-psicose (5% SE) in citric acid buffer
# [8] = Sucrose equivalence of D-psicose (background statement); type: in vivo, human; settings: 2% (w/w) in a citric acid/potassium citrate matrix
# Excerpt: The sweetness of a non-sucrose sweetener can be measured against a sucrose reference by determining the non-sucrose sweetener's sucrose equivalence. Typically, taste panelists are trained to detect sweetness of reference sucrose solutions containing between 1-15% sucrose (w/v). Other non-sucrose sweeteners are then tasted at a series of dilutions to determine the concentration of the non-sucrose sweetener that is as sweet as a given percent sucrose reference. For example, if a 1% solution of a sweetener is as sweet as a 10% sucrose solution, then the sweetener is said to be 10 times as potent as sucrose, and has 10% sucrose equivalence.
compound,measurement,setting,value
O=C(CO)[C@@H](O)[C@@H](O)[C@H](O)CO [D-tagatose],sweetness against 5% and 6% sucrose solutions,[1]; D-tagatose (5% SE) in citric acid buffer,5 % sucrose
"O=C(O)c1ccc(O)cc1O [2,4-dihydroxybenzoic acid]","sweetness against 1%, 2% and 3% sucrose solutions",[2]; 500 ppm alone in citric acid buffer,< 1 % sucrose
same,increase of detected sucrose equivalence,"[2]; added at or below its sweetness recognition threshold to a beverage containing D-psicose, embodiment statement",about 1.5%
Cc1nc2cccc(OC3CCCCC3)c2c(N)c1C(=O)O [4-amino-5-(cyclohexyloxy)-2-methylquinoline-3-carboxylic acid],sweetness with 30 ppm enhancer in combination with D-psicose individually,[3]; D-psicose part of the blend (2% SE),3 % SE
same,increase of detected sucrose equivalence,"[3]; added at or below its sweetness recognition threshold, b195 after b194 (D-psicose and sucrose), embodiment statement",about 5.0%
same,sweetness with 30 ppm enhancer in combination with sucrose individually,[4],7%
Rebaudioside C,sucrose equivalence,"[5]; 220 ppm in citric acid/potassium citrate buffer, alone",less than 1.0%
same,detected sucrose equivalence after addition of Rebaudioside C,"[5]; about 220 ppm added to lemon-lime carbonated soft drink, citric acid buffer, D-psicose about 2% by weight, embodiment statement",about 2.0%
same,sweetness recognition threshold concentration,[6]; in a citric acid/potassium citrate buffer,270 ppm
same,sweetness recognition threshold concentration,[6]; in cola,about 345 ppm
O=C(CO)[C@H](O)[C@H](O)[C@H](O)CO [D-psicose],sweetness equivalence,[5]; 2% D-psicose in the absence of Rebaudioside C,1.2 % sucrose
same,detected sucrose equivalence before addition of Rebaudioside C,"[5]; lemon-lime carbonated soft drink, citric acid buffer, D-psicose about 2% by weight, embodiment statement",about 1.2%
same,sweetness against 5% and 6.5% sucrose solutions,"[2]; D-psicose solution (5% SE), citric acid buffer",5 % sucrose
same,sweetness against 5% and 6.5% sucrose solutions,[7],5 % sucrose
same,sweetness against 5% and 6% sucrose solutions,[3]; D-psicose (5% SE) in citric acid buffer,5 % sucrose
same,sucrose equivalence,[8],about 1.26%
CCCNC(=O)C(C)(C)COc1cccc2c1C(N)=NS(=O)(=O)N2 [FEMA GRAS flavor 4701],sucrose equivalence,[1]; 15 ppm alone in citric acid buffer,less than 1.0%
